Source: US8546320B2, “Hsp9O-targeted anti-cancer chimeric peptide” (Kyoto University, priority 2008, dated 2013)
Where a SMILES comes first, the peptide text is derived from it.

Tests used:
Caki-1 = type: cell-based, human; details: Caki-1; for Anti-cancer activity (% relative to wild-type peptide) / Decrease in cell survival rate (% relative to wild-type peptide): wild-type peptide = 100%
cancer cells = test: Cell viability assay, summary statements on cancer cells; type: cell-based; details: single mutation in TPR or Antp region of Antp-TPR

| Compound | killing effect compared with the wild-type peptide (Caki-1) | Anti-cancer activity (% relative to wild-type peptide) (Caki-1) [%] | Decrease in cell survival rate (% relative to wild-type peptide) (Caki-1) [%] | effect compared with the wild-type protein (summary of mutations) (cancer cells) |
| --- | --- | --- | --- | --- |
| CC[C@H](C)[C@H](NC(=O)[C@H](CCCNC(=N)N)NC(=O)[C@H](C)NC(=O)[C@H](Cc1ccc(O)cc1)NC(=O)[C@H](C)NC(=O)[C@H](CCCCN)NC(=O)[C@H](CCCNC(=N)N)NC(=O)[C@H](CCCCN)NC(=O)[C@H](Cc1c[nH]c2ccccc12)NC(=O)[C@H](CCCCN)NC(=O)[C@H](CCSC)NC(=O)[C@H](CCCNC(=N)N)NC(=O)[C@H](CCCNC(=N)N)NC(=O)[C@H](CC(N)=O)NC(=O)[C@H](CCC(N)=O)NC(=O)[C@H](Cc1ccccc1)NC(=O)[C@H](Cc1c[nH]c2ccccc12)NC(=O)[C@@H](NC(=O)[C@H](CCCCN)NC(=O)[C@@H](NC(=O)[C@H](CCC(N)=O)NC(=O)[C@@H](N)CCCNC(=N)N)[C@@H](C)CC)[C@@H](C)CC)C(=O)NCC(=O)N[C@@H](CC(N)=O)C(=O)N[C@@H](CO)C(=O)N[C@@H](Cc1ccc(O)cc1)C(=O)N[C@@H](Cc1ccccc1)C(=O)N[C@@H](CCCCN)C(=O)O [Antp K16R-TPR] (H-RQIKIWFQNRRMKWKRKAYARIGNSYFK-OH; N-terminus and C-terminus assumed) | stronger than that of the wild-type peptide | 110.26 | 709.01 | effect higher than the wild-type protein |
| CC[C@H](C)[C@H](NC(=O)[C@H](CCCNC(=N)N)NC(=O)[C@H](C)NC(=O)[C@H](Cc1ccc(O)cc1)NC(=O)[C@H](C)NC(=O)[C@H](CCCCN)NC(=O)[C@H](CCCCN)NC(=O)[C@H](CCCCN)NC(=O)[C@H](Cc1c[nH]c2ccccc12)NC(=O)[C@H](CCCCN)NC(=O)[C@H](CCSC)NC(=O)[C@H](CCCNC(=N)N)NC(=O)[C@H](CCCNC(=N)N)NC(=O)[C@H](CC(N)=O)NC(=O)[C@H](CC(N)=O)NC(=O)[C@H](Cc1ccccc1)NC(=O)[C@H](Cc1c[nH]c2ccccc12)NC(=O)[C@@H](NC(=O)[C@H](CCCCN)NC(=O)[C@@H](NC(=O)[C@H](CCC(N)=O)NC(=O)[C@@H](N)CCCNC(=N)N)[C@@H](C)CC)[C@@H](C)CC)C(=O)NCC(=O)N[C@@H](CC(N)=O)C(=O)N[C@@H](CO)C(=O)N[C@@H](Cc1ccc(O)cc1)C(=O)N[C@@H](Cc1ccccc1)C(=O)N[C@@H](CCCCN)C(=O)O [Antp Q8N-TPR] (H-RQIKIWFNNRRMKWKKKAYARIGNSYFK-OH; N-terminus and C-terminus assumed) | stronger than that of the wild-type peptide | 109.65 | 519.29 | effect similar to that of the wild-type protein |
| CC[C@H](C)[C@H](NC(=O)[C@H](CCCNC(=N)N)NC(=O)[C@H](C)NC(=O)[C@H](Cc1ccc(O)cc1)NC(=O)[C@H](C)NC(=O)[C@H](CCCCN)NC(=O)[C@H](CCCCN)NC(=O)[C@H](CCCCN)NC(=O)[C@H](Cc1c[nH]c2ccccc12)NC(=O)[C@H](CCCCN)NC(=O)[C@H](CCSC)NC(=O)[C@H](CCCNC(=N)N)NC(=O)[C@H](CCCNC(=N)N)NC(=O)[C@H](CC(N)=O)NC(=O)[C@H](CCC(N)=O)NC(=O)[C@H](Cc1ccccc1)NC(=O)[C@H](Cc1c[nH]c2ccccc12)NC(=O)[C@H](CC(C)C)NC(=O)[C@H](CCCCN)NC(=O)[C@@H](NC(=O)[C@H](CCC(N)=O)NC(=O)[C@@H](N)CCCNC(=N)N)[C@@H](C)CC)C(=O)NCC(=O)N[C@@H](CC(N)=O)C(=O)N[C@@H](CO)C(=O)N[C@@H](Cc1ccc(O)cc1)C(=O)N[C@@H](Cc1ccccc1)C(=O)N[C@@H](CCCCN)C(=O)O [Antp 15L-TPR] (H-RQIKLWFQNRRMKWKKKAYARIGNSYFK-OH; N-terminus and C-terminus assumed) | – | 73.75 | 31.29 | effective but with an effect lower than the wild-type protein |
